Data from ChEMBL document CHEMBL1201862, “PubChem BioAssay data set” (2004).
Activity calls are given as the source filed them.

Key:
Streptococcus = assay: Group A Streptococcus viability loss, dose response, counter-screen for streptokinase expression inhibitor project, luminescence, BacTiterGlo (AID 1915); format: functional, organism-based;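 further: potency for reduction of bacterial viability or growth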
Streptokinase A = target: T1, Streptokinase A (Streptococcus pyogenes serotype M1, UniProt P10520); assay: S. pyogenes streptokinase expression inhibitors, potency, dose response, plasminogen activation absorbance, OD405 (AID 1914); format: functional, Streptococcus pyogenes M1 GAS;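 further: secreted streptokinase activity via plasminogen activation per viability signal from cell pellet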
T1 sequence (P10520 whole entry): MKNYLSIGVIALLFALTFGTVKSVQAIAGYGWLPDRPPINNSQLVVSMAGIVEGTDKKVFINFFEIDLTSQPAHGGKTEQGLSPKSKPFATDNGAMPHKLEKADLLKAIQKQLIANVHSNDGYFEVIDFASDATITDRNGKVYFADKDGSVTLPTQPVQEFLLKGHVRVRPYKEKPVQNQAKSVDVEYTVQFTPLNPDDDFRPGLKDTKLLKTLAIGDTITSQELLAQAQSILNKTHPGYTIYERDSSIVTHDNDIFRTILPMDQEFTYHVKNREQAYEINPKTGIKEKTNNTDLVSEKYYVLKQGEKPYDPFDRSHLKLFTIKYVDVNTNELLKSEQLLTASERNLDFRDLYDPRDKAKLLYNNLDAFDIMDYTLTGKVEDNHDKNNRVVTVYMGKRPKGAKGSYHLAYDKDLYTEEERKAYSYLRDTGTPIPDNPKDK

Albumin = Albumin (Bos taurus, UniProt P02769); assay: Counterscreen for inhibitors of T-cell receptor (TCR)-CD3 interaction: Fluorescence-based biochemical high throughput dose response assay to identify inhibitors of T-cell receptor (TCR)-CD3 interaction using a TAMRA-labeled BSA probe.; format: functional
Sequence of Albumin (P02769 whole entry): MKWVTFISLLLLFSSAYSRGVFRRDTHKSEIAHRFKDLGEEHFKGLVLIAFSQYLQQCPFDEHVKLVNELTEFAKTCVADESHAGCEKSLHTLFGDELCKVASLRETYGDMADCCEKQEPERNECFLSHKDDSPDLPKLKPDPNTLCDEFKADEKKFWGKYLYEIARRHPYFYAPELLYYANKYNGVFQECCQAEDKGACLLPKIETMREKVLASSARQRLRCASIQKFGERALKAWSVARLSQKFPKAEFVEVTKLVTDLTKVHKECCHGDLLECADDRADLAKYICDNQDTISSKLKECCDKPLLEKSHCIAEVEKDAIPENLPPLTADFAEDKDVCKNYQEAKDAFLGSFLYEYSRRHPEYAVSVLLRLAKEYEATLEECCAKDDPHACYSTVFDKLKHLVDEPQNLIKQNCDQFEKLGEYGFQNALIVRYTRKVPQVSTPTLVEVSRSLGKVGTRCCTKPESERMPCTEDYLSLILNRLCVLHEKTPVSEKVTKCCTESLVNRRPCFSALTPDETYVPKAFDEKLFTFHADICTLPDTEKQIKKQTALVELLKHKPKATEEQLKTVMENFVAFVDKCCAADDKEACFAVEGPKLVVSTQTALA

[1] = test system: Streptococcus sp. 'group A'; assay: growth inhibition of control SK(-) GAS strain, dose response, counter-screen for streptokinase expression inhibitor project, luminescence, kanamycin, BacTiterGlo, confirmation (AID 1900); format: functional, organism-based
fMet-Leu-Phe receptor = target: T2, fMet-Leu-Phe receptor (Homo sapiens, UniProt P21462); assay: FPR ligands, dose response (AID 519); format: functional
T2 sequence (P21462 whole entry): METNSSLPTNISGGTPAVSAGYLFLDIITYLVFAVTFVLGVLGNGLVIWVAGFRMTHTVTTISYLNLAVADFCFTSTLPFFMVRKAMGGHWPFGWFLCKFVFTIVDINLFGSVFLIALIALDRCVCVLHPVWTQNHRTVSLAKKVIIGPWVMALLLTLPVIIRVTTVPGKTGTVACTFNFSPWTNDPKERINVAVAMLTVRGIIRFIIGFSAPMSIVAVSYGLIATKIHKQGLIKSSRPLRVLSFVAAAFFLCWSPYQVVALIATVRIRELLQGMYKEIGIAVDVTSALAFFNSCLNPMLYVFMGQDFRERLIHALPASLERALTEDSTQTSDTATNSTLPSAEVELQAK

[2] = growth suppression of beta-catenin-knockout colon cells, dose response, cell-based, HCT116, human colon tumor (AID 1045); format: functional;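 further: HCT116 colon tumor cells with beta catenin knocked out; cells exposed to compound for 60 hours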
[3] = human group III sPLA2 inhibitors, dose response, biochemical, QFRET, IC50 (AID 743457);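 further: green fluorescence rise as the enzyme cleaves BODIPY PC-A2 in liposomes; potency for inhibition of the enzyme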
[4] = growth suppression of PTEN-null colon cells, dose response, cell-based, HCT116 PTEN knockout (AID 1047); format: functional;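 further: HCT116 colon tumor cells with PTEN knocked out; cells exposed to compound for 60 hours before readout; potency for loss of cell viability measured by luminescence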
[5] = target: T3, Tyrosyl-DNA phosphodiesterase 2 (Homo sapiens, UniProt O95551); assay: human TDP2 enzyme inhibitors, dose response, biochemical, epi absorbance, IC50 (AID 743297)
T3 sequence (O95551 whole entry): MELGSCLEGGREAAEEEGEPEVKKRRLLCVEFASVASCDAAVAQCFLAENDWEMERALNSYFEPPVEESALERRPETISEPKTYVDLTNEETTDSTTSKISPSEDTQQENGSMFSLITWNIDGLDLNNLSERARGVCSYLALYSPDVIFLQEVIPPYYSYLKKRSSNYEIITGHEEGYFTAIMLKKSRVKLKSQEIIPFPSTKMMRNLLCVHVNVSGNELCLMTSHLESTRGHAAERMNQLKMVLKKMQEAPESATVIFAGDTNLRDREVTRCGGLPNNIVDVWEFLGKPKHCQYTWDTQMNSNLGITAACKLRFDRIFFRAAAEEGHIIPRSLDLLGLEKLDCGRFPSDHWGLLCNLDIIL

Protein RecA = target: T4, Protein RecA (Mycobacterium tuberculosis, UniProt P9WHJ3); assay: Fluorescence Cell-Free Homogeneous Dose Retest to Identify Inhibitors of RecA-Intein Splicing Activity. [Related pubchem assays (depositor defined):AID2097, AID2223, AID489010, AID492950]; format: functional
T4 sequence (P9WHJ3 whole entry): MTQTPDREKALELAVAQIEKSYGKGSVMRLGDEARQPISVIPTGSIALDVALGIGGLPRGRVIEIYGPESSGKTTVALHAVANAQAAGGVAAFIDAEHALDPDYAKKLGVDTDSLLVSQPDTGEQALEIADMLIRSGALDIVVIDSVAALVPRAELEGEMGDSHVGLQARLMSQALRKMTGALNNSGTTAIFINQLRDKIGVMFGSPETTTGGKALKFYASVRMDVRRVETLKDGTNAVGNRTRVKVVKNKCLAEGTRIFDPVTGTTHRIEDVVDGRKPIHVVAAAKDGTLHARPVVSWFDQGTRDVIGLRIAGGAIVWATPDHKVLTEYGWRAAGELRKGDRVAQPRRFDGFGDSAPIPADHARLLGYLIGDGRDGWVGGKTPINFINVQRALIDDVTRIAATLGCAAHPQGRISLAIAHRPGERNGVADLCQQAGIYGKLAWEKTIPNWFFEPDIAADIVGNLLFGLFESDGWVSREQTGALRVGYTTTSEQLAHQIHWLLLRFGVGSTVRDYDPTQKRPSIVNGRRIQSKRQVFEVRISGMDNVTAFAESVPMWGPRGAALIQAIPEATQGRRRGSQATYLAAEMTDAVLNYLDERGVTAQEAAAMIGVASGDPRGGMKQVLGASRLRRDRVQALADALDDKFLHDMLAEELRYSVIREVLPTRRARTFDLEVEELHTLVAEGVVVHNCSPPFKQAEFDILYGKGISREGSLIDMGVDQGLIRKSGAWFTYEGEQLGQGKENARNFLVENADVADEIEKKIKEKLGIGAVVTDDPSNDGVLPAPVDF

Genome polyprotein = Genome polyprotein (dengue virus type 2, UniProt P29990); assay: Dengue-2 NS5 methyltransferase inhibitors, primary screen, biochemical, confirmation dose response (AID 588689); format: functional
Sequence of Genome polyprotein (P29990 2492-3391 limits assumed): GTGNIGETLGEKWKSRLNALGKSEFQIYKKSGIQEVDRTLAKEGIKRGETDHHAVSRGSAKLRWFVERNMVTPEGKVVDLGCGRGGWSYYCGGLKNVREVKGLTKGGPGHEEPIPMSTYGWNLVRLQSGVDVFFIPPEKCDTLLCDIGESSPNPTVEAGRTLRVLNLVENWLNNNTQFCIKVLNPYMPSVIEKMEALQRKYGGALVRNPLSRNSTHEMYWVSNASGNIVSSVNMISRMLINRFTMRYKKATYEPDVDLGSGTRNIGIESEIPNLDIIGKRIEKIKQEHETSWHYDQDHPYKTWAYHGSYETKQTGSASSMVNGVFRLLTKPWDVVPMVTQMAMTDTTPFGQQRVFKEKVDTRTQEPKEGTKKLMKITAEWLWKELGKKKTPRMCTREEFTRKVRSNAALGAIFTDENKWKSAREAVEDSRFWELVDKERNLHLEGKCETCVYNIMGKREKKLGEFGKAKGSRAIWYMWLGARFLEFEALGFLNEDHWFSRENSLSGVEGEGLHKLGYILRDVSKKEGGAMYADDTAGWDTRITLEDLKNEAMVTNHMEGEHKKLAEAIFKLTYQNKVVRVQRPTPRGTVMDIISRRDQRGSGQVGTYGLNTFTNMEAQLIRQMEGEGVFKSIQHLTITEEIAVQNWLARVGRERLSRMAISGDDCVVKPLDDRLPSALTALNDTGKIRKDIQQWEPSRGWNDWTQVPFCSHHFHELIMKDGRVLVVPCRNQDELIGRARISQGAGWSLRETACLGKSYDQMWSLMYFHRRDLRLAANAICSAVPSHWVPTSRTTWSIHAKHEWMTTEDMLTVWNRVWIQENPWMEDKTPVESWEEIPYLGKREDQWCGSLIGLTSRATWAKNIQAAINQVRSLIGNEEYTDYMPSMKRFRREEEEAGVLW

[6] = target: T5, Replicative DNA helicase DnaB (Mycobacterium tuberculosis, UniProt P9WMR3); assay: DnaB intein splicing inhibitors, dose response, biochemical, cell-free fluorescence (AID 449749); format: functional
T5 sequence (P9WMR3 whole entry): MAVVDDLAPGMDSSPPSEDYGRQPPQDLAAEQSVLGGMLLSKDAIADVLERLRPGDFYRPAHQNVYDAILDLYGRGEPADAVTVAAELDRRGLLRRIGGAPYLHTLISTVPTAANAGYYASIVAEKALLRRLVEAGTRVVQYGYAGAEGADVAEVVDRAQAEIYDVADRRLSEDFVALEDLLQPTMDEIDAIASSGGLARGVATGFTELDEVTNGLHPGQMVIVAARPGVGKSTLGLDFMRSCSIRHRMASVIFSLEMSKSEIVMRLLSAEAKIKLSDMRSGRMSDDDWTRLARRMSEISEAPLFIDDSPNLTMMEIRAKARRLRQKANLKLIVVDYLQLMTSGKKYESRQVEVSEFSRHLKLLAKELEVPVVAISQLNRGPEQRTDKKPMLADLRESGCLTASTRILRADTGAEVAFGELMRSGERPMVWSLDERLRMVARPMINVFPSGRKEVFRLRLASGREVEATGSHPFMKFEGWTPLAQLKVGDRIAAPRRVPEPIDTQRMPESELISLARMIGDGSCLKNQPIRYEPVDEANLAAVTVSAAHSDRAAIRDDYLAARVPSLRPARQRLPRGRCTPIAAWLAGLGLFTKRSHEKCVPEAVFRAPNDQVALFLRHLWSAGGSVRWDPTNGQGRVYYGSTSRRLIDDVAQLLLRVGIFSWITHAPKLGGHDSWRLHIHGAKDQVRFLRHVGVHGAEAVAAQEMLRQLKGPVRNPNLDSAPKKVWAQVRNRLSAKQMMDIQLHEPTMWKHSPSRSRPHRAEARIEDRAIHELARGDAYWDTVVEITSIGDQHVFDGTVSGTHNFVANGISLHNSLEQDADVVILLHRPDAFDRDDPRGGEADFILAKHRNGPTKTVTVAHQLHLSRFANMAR

[7] = target: T6, Histone-lysine N-methyltransferase NSD2 (Homo sapiens, UniProt O96028); format: biochemical
T6 sequence (O96028 whole entry): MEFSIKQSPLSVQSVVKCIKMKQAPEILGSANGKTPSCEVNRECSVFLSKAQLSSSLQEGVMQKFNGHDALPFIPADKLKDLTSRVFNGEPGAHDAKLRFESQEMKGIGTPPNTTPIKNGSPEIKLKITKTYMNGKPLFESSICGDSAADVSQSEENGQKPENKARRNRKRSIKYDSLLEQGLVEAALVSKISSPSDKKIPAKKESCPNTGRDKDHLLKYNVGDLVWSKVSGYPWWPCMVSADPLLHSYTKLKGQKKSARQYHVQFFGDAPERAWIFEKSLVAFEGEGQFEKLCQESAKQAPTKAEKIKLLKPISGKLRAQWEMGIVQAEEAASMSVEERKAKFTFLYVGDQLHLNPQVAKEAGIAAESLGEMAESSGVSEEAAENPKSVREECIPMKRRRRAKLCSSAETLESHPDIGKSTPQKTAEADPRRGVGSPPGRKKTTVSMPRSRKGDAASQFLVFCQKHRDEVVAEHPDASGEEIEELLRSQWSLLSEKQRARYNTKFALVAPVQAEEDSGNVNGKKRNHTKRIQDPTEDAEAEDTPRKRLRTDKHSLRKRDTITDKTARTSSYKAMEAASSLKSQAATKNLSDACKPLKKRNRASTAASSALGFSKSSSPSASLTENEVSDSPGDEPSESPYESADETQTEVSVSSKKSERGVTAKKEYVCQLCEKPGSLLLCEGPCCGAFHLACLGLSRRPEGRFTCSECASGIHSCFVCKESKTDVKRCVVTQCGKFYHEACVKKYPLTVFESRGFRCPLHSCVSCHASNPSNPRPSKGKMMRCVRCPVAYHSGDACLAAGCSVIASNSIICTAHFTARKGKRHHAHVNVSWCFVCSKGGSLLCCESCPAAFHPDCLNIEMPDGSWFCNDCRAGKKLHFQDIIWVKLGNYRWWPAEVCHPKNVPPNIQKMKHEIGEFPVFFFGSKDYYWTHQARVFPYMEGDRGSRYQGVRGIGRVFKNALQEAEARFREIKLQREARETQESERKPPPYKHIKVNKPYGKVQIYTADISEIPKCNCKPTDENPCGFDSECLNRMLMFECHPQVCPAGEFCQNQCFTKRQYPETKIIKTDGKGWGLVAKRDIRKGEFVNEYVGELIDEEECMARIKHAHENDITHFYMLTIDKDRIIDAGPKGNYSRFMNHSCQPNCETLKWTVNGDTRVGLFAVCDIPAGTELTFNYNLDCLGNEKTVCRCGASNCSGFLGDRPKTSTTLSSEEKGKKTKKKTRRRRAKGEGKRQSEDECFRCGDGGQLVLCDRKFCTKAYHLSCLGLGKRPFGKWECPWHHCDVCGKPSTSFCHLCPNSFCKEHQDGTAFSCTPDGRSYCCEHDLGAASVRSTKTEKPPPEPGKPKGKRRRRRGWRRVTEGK

[8] = NIH:OVCAR-3 ovarian cancer cell cytotoxicity, dose response, PAX8 inhibitor project, plate reader, dry powder samples (AID 743044); format: functional, cell-based
[9] = IGROV1 ovarian cancer cell cytotoxicity, dose response, PAX8 inhibitor project, plate reader, dry powder samples (AID 743043); format: functional, cell-based; details: IGROV-1
Paired box protein Pax-8 = Paired box protein Pax-8 (Homo sapiens, UniProt Q06710); assay: inhibitors of PAX8-driven TPO luciferase reporter, dose response, RMG-I cells, cherry-pick (AID 687027); format: functional, cell-based;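 further: luciferase reporter driven by Pax8 target thyroperoxidase promoter measured by SteadyGlo luminescence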
Sequence of Paired box protein Pax-8 (Q06710 whole entry): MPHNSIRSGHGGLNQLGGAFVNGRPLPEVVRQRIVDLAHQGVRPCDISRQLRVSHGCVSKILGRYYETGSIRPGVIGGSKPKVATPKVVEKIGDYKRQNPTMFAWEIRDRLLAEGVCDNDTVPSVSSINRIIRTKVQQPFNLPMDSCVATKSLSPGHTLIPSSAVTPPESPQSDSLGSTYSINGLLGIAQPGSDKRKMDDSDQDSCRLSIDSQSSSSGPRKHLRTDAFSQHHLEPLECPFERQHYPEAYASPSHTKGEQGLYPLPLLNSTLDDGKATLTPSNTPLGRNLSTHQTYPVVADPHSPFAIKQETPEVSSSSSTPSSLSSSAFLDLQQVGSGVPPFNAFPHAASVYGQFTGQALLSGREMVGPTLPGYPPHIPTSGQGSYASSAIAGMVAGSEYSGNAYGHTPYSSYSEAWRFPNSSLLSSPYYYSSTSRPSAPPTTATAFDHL

[10] = A549 cell cytotoxicity, dose response, cytotoxicity control, plate reader, cherry-pick, antagonist series (AID 743412); format: functional, cell-based
[11] = MC4R antagonists, dose response, counter-screen for LGR2 antagonist project, cell-based, plate reader, cherry pick (AID 743444); format: functional;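 further: transfected HEK 293 cells stimulated with alpha-MSH peptide; potency of inhibitors of the alpha-MSH evoked signal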
[12] = HepG2 cell cytotoxicity, dose response, cytotoxicity control, plate reader, cherry-pick, antagonist series (AID 743416); format: functional, cell-based
[13] = LGR2 antagonists, dose response, cell-based, HEK293, CRE-luciferase reporter, cherry pick, set 2 (AID 743343); format: functional;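 further: transfected cells were stimulated with diluted bursicon conditioned medium after compound addition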

CCCCCC(=O)NC(=S)NC1C2CC3CC(C2)CC1C3 (configuration not stated)
EC50 (Streptococcus): 27.9 µM (active) | EC50 (Streptokinase A): 11.5 µM (active) | IC50 (Albumin): > 94.1 µM (inactive) | EC50 [1]: 3.42 µM (active)

COCCCN1C(=O)C(O)=C(C(=O)c2ccccc2)C1c1ccc2c(c1)OCO2 (configuration not stated)
Ki (fMet-Leu-Phe receptor): 29.6 µM (inactive)

Cc1ccc(C)c(N2CCN(S(=O)(=O)c3c(C)noc3/C=C/N(C)C)CC2)c1
EC50 [2]: 32.6 µM (active) | IC50 [3]: > 122 µM (inactive) | EC50 [4]: 26.5 µM (active)

Cc1ccc(N=C(S)NNC(=O)c2ccccc2O)c(C)c1
IC50 [3]: > 122 µM (inactive)

COc1cccc(C(c2c(C)nn(-c3ccccc3)c2O)c2c(C)nn(-c3ccccc3)c2O)c1OC
IC50 [5]: 24.7 µM (inactive) | EC50 (Protein RecA): 0.81 µM (active) | IC50 (Genome polyprotein): 61.1 µM (active) | AC50 [6]: 1.25 µM (active)

Cc1oc2cc(O)cc(O)c2c(=O)c1-c1ccc2c(c1)OCCCO2
Ki (fMet-Leu-Phe receptor): > 66.7 µM (inactive)

O=C1Nc2c(Cl)cccc2C1=O
AC50 [7]: 9.86 µM (active)

C[C@H](CO)N1C[C@H](C)[C@@H](CN(C)Cc2ccccc2)Oc2ccc(NC(=O)Nc3ccc(C(F)(F)F)cc3)cc2CC1=O
AC50 [8]: 51.8 µM (active) | AC50 [9]: 46.6 µM (active) | AC50 (Paired box protein Pax-8): 9.3 µM (active)

N#C[C@@H]1[C@H](c2ccc(C#Cc3ccccc3F)cc2)[C@@H](CO)N1C(=O)C1CCCC1
AC50 [10]: > 52 µM (inactive) | AC50 [11]: 6.34 µM (active) | AC50 [12]: 39.6 µM (active) | AC50 [13]: 8.84 µM (active)
